From paper PMC12040169 (PLOS Biology, 2025)

assay: in vitro; settings: human, hela cells, % viability

Row | SMILES | viability at 28.5 h, 10 µM [%]
1 | CCCN1CCCN(c2ccc(-n3ccc(C)n3)nn2)CC1 [CBK306304] | 107
2 | O=C(Cn1ccnc1)Nc1nc(-c2ccccc2F)cs1 [CBK281409] | 104
3 | O=C(Nc1cccc(N2CCNCC2)c1)c1cccnc1 [CBK029414T] | 94.6
4 | COC(=O)c1sccc1NS(=O)(=O)c1cc(F)c(Br)cc1F [CBK004492] | 103
5 | Cc1cc(=O)cc(C(=O)NC2CCN(c3ncccc3C#N)CC2)o1 [CBK307240] | 86.2
6 | Cc1cccc(-c2ccc(CC3(C(N)=O)CCN(C(=O)c4ccccc4)CC3)cc2)c1 [CBK285778] | 93.9
7 | COC(=O)c1c(NC(=O)C2CC(=O)NN2C)sc2c1CCC2 (centres unmarked) [CBK269218A] | 89.2
8 | CCC(=O)N1CCCc2cc(C(O)CN3CCCC(C)C3)ccc21 (centres unmarked) [CBK283049] | 89.2
9 | O=C(O)Cc1ccc(-c2ccccc2)cc1 [CBK011660] | 104
10 | NCCCc1c(-c2ccc(Cl)cc2Cl)[nH][nH]c1=O [CBK288367] | 86.8
11 | CC1CCCCN1C(=O)C1C2CCC3(CC(=O)c4ccccc4O3)C21 (centres unmarked) [CBK284960] | 101
12 | COc1ccc(NC(=O)Cc2csc(NC(C)=O)n2)cc1 [CBK287650] | 93.3
13 | O=C(CN1CCCC1Cn1cccn1)N1CCCc2ccccc21 (centres unmarked) [CBK281971] | 89
14 | CC(=O)Nc1cccc(-c2cnc(N(C)S(C)(=O)=O)c(C(=O)NCc3ccc4c(c3)CCO4)c2)c1 [CBK076609] | 99.7
15 | O=C1CC(c2cc(F)ccc2F)c2c(-c3ccc(Cl)cc3)n[nH]c2N1 (centres unmarked) [CBK288000] | 110
16 | O=C(c1cccnc1)N1CCN(S(=O)(=O)c2ccc([N+](=O)[O-])cc2)CC1 [CBK264300] | 92.5
17 | CCCc1[nH]nc(O)c1Cc1ccc(F)cc1F [CBK075015] | 85.7
18 | CCC1CCCCN1C(=O)c1cc2cc(Cl)ccc2[nH]1 (centres unmarked) [CBK074329] | 102
19 | O=C(Nc1ncn(CC(=O)N2CCCCCC2)n1)c1cccc(F)c1 [CBK304904] | 87.5
20 | O=C1CCC[C@]2(CN(Cc3ccccc3)C[C@H]2c2ccncc2)N1 [CBK283348] | 84.5
21 | COC(=O)C1Cc2cc3c(cc2C(c2cc(OC)c(OC)c(OC)c2)N1)OCO3 (centres unmarked) [CBK200104T] | 65.5
22 | Cn1c(N2CC[C@H](O)C2)nc2cc(C(=O)NCc3ccsc3)ccc21 [CBK307471] | 87.5

Row | SMILES | viability at 28.5 h, 10 µM [%]
23 | CC(=O)Nc1ccc(S(=O)(=O)NC2(C(F)(F)F)NC(=O)N(C3CCCC3)C2=O)cc1 (centres unmarked) [CBK268100] | 84.6
24 | COc1ccc([C@H]2CN(Cc3ccccc3)C[C@@H]2NC(=O)CCc2ccco2)cc1 [CBK286477] | 87.6
25 | Oc1n[nH]c(-c2ccccc2Cl)c1Cc1c(Cl)cccc1Cl [CBK107935] | 84.1
26 | Cc1nc2ccccn2c1-c1csc(Nc2ccc(C(=O)O)cc2)n1 [CBK261634B] | 74.4
27 | O=C1CCC(=O)N1CCOc1nccnc1N1CCN(Cc2ccc(Cl)cc2)CC1 [CBK084290] | 96.1
28 | COc1ccccc1N1CCN(C(=O)Nc2cccnc2)CC1 [CBK155617] | 98.7
29 | CC(=O)Nc1cccc(C(=O)N(Cc2ccccc2)Cc2ccccc2)c1 [CBK269295] | 91.6
30 | Oc1ccc2c(c1)C(O)CC1(CCN(CC(O)c3ccc(-c4ccccc4)cc3)CC1)O2 (centres unmarked) [CBK286351] | 91.3
31 | CCCC(=O)Nc1cccnc1N1CCNCC1 [CBK004732T] | 94
32 | Nc1ncc([C@H]2C[C@@H](O)[C@@H](CO)O2)c(=O)[nH]1 [CBK201246] | 79.8
33 | Cc1ccc(S(=O)(=O)Nc2nnc(C(C)C)s2)cc1 [CBK045528] | 108
34 | CN(C)CC(C)(C)CNC(=O)c1cc(-c2ccc(Cl)cc2)on1 [CBK116561] | 101
35 | COc1ccc(C2C(C(=O)Nc3ccccc3)=C(C)Nc3ncnn32)cc1 (centres unmarked) [CBK287353] | 103
36 | CC1CCCN(C(=O)Cn2ncn3c(cc4ccsc43)c2=O)C1 (centres unmarked) [CBK284245] | 84.5
37 | O=[N+]([O-])c1ccc(Sc2cccc(F)c2)nc1 [CBK002905] | 103
38 | OCCCNc1nccnc1-c1cccc(F)c1 [CBK088976] | 98.5
39 | COc1ccc(S(=O)(=O)Nc2ccc3oc(-c4ccccc4F)cc(=O)c3c2)cc1 [CBK300518] | 90.1
40 | N#CCNS(=O)(=O)c1ccc(OC(F)(F)F)cc1 [CBK044841] | 111
41 | OC(CN1CCC(O)(c2ccc(F)cc2)CC1)c1ccccc1 (centres unmarked) [CBK282489] | 104
42 | C[C@@H](Cn1nc(-c2cccs2)oc1=O)NC(=O)C1CCCC1 [CBK284337] | 86.5
43 | Cc1ccc2nc(-c3ccc(/N=C/c4cccc(O)c4O)cc3)sc2c1 [CBK261583] | 96
44 | CCn1nc(C)c(-c2cncn2CCCC(C)(C)CO)c1C [CBK281807] | 84.4

Row | SMILES | viability at 28.5 h, 10 µM [%]
45 | CC(C)(C)OC(=O)N1CCC(NC(=O)c2ccc(-c3ccc(S(C)(=O)=O)cc3)cn2)CC1 [CBK174352] | 84.8
46 | Cc1ccc2c(c1)C(=O)CC1(CCN(C(=O)Cc3c(C)[nH]c(=O)[nH]c3=O)CC1)O2 [CBK285688] | 91.6
47 | Fc1cnc(N2CCCC3(CCOC3)C2)nc1N1CCOCC1 (centres unmarked) [CBK307131] | 84.5
48 | CC(C)(Oc1ccc(Cl)cc1)C(=O)NCCc1ccc(S(N)(=O)=O)cc1 [CBK265628] | 107
49 | Cc1ccccc1OCCSc1nc2ccccc2n1CCO [CBK262523] | 98.1
50 | Nc1ncc(-c2ccc(C(F)(F)F)cc2)nc1-c1ccc(C(=O)N2CCOCC2)cc1 [CBK090524] | 103
51 | CCOC(=O)C1CCN(CCC(=O)Nc2ccc(F)c(F)c2)CC1 [CBK264252] | 112
52 | O=C(c1ccc2ccccc2n1)N1CCC(Cc2ccccc2)CC1 [CBK200184] | 96.4
53 | COCCc1nc(-c2csc(CN(C)C)n2)n(Cc2ccccc2C)n1 [CBK306735] | 107
54 | O=C(O)c1ccc(Cl)c(S(=O)(=O)N2CCCC2C(=O)O)c1 (centres unmarked) [CBK265733] | 103
55 | Cc1cc(C)cc(OCC(=O)Nc2ccc3[nH]c(=O)[nH]c3c2)c1 [CBK269676] | 99.5
56 | COc1ccc(C(=O)C2=C(O)C(=O)N(CCN(C)C)C2c2ccncc2)c(C)c1 (centres unmarked) [CBK264867] | 92.5
57 | COc1ccc(CCNC(=O)N2CCN(c3cc(C(F)(F)F)ccn3)CC2)cc1OC [CBK162330] | 105
58 | Cc1c(Cc2ccccc2)c(N2CCN(Cc3ccccc3)CC2)n2c(nc3ccccc32)c1C#N [CBK263150] | 94.9
59 | FC(F)(F)c1cnc(N2CCNCC2)c(Cl)c1 [CBK013400] | 92.9
60 | CCc1noc(C)c1C(=O)NC(C)c1cc2ccccc2o1 (centres unmarked) [CBK247065] | 87.1
61 | Cc1cc(NC(=O)c2ccc(OC(C)C)cc2)no1 [CBK287575] | 94.4
62 | C=Cn1ncc(CN2C3CCC2CC(O)(c2ccc(F)cc2)C3)c1C (centres unmarked) [CBK282738] | 104
63 | O=C(COc1ccccc1)Nc1ccccc1Sc1ncnc2sc3c(c12)CCCC3 [CBK266171] | 98.4
64 | c1cncc(-c2ccc(N3CCN(CCN4CCCC4)CC3)nc2)c1 [CBK037661] | 108
65 | Cc1nc2ccc(NC(=S)N3c4ccccc4CC3C)cc2nc1C (centres unmarked) [CBK263169] | 62.5
66 | CCc1nnc(NS(=O)(=O)c2ccc(OC(F)(F)F)cc2)s1 [CBK026672] | 91.7

Row | SMILES | viability at 28.5 h, 10 µM [%]
67 | CCOc1ccc(NC(=O)N(Cc2ccccn2)CC2CCCO2)cc1 (centres unmarked) [CBK306847] | 83.7
68 | CC(C)(C)C(=O)NCCn1c(=O)oc2ccccc21 [CBK282885] | 96.4
69 | CCOC(=O)NC(Nc1nc2ccccc2s1)(C(F)(F)F)C(F)(F)F [CBK008913] | 93.6
70 | COc1ccc(C2(CN3CCC(NC(C)=O)CC3)CC2)cc1 [CBK285357] | 101
71 | Cc1ccc(NC(=O)CN(C)C)c(C)n1 [CBK200388] | 99.6
72 | C=CCn1c(SCC(=O)Nc2ccnc3ccccc23)nnc1-c1cccnc1 [CBK268723] | 88.6
73 | CCCC/C=C/c1cncc(N2CCN(c3ccccc3C#N)CC2)n1 [CBK037369] | 93.6
74 | CCCCc1noc(CN2CCCC2C(=O)NCc2ccco2)n1 (centres unmarked) [CBK304036] | 88
75 | Cc1ccc(N2C(=O)CC(Sc3ncccc3C(=O)O)C2=O)cc1 (centres unmarked) [CBK287761] | 87.7
76 | NS(=O)(=O)c1ccc(NC(=O)c2cc3c(n(-c4ccccc4)c2=O)CCCC3=O)cc1 [CBK266467] | 115
77 | COCC(C)NC(=O)C1CCCN(S(=O)(=O)c2ccc(OC)c(C)c2)C1 (centres unmarked) [CBK270242] | 86
78 | O=C(Nc1ccc(Cc2ccc(O)c(NC(=O)c3ccccc3F)c2)cc1O)c1ccccc1F [CBK265766] | 85.4
79 | FC(F)(F)c1ccc(Oc2ccc(-c3noc(-c4cccnc4)n3)cc2)nc1 [CBK270166] | 90.3
80 | O=C1C(C2CCN(Cc3ccc4ncccc4c3)CC2)CC=CCN1Cc1ccccc1 (centres unmarked) [CBK286269] | 108
81 | Cn1nnnc1NC(=O)c1ccccc1F [CBK058776] | 102
82 | CC(C)C(=O)N1CCN(C(=O)Cn2c(-c3ccc(Cl)cc3)n[nH]c2=S)CC1 [CBK297910] | 100
83 | CC(C)CC1C(=O)NCCN1Cc1ccccc1 (centres unmarked) [CBK005336] | 92
84 | COc1ccccc1-c1nccnc1OCCc1c[nH]c2ccccc12 [CBK106807] | 87.7
85 | O=C(CSCCO)Nc1ccc(Oc2ccccc2)cc1 [CBK269167] | 98.4
86 | CN1CCN(c2nc(NS(=O)(=O)c3ccc(C#N)cc3)cc3ccccc23)CC1 [CBK002977C] | 94.8
87 | CN1CCC(N2CCN(C(=O)c3ccc(-c4ccc(OC(F)(F)F)cc4)nc3)CC2)CC1 [CBK156206] | 92.8
88 | CC(C)(C)NC(=O)c1nn2c(c1Br)NC(c1cccs1)CC2C(F)(F)F (centres unmarked) [CBK307175] | 84.9

same assay, conditions: human, hela cells, % viability, bulk resorufin, single well

Row | SMILES | viability at 28.5 h, 10 µM [%]
89 | COc1cc(CNC(=O)c2cccc(-c3ccc4c(c3)COC3(CCNCC3)O4)c2)cc(OC)c1OC [CBK110087] | 87.8
